This note sets out measurements from ChEMBL document CHEMBL4373665, “Discovery of new non-acidic lonazolac analogues with COX-2 selectivity as potent anti-inflammatory agents” (Medchemcomm, 2019).

In series [1] the target is Prostaglandin G/H synthase 1 (Homo sapiens, UniProt P23219). In words: Inhibition of human recombinant COX1 assessed as decrease in prostaglandin production using arachidonic acid as substrate pretreated for 15 mins followed by substrate addition and measured after 2 mins by enzyme immunoassay. The series is classed as single protein.
A short description of series [2]: Ulcerogenic activity in rat assessed as effect on mucosal blood vessel at 50 mg/kg by hematoxylin and eosin staining based assay. The series is classed as toxicity, organism-based. The settings on record: in vivo.
The species named for a further series is Homo sapiens. In words: Selectivity index, ratio of IC50 for human recombinant COX1 to IC50 for human recombinant COX2 using arachidonic acid as substrate.
A short description of series [3]: Hepatotoxicity in rat assessed as effect on hepatocytes in periportal area at 50 mg/kg by hematoxylin and eosin staining based assay. The format is toxicity, organism-based. Conditions: in vivo.
The nature of series [4]: Hepatotoxicity in rat assessed as effect on bile ducts at 50 mg/kg by hematoxylin and eosin staining based assay. The series is classed as toxicity, organism-based. Conditions: in vivo.
A short description of series [5]: Ulcerogenic activity in rat assessed as effect on parietal cells at 50 mg/kg by hematoxylin and eosin staining based assay. The format is toxicity, organism-based. The settings on record: in vivo.
The nature of series [6]: Nephrotoxicity in rat assessed as effect on glomeruli at 50 mg/kg surrounded by Bowmann's capsule by hematoxylin and eosin staining based assay. The series is classed as toxicity, organism-based. The settings on record: in vivo.
The test system of series [7] is Rattus norvegicus. Briefly: Anti-inflammatory activity in albino rat model of carrageenan-induced paw edema assessed as inhibition of carrageenan-induced paw edema at 100 mg/kg, po administered as single dose prior to carrageenan challenge measured after 1 hr relative to control. The format is functional. For orientation: In the carrageenan paw model, swelling and tenderness develop within hours.

Series [8] can be described thus: Ulcerogenic activity in rat assessed as average number of ulcers formed at 50 mg/kg, sc qd for 4 days post 18 hrs fasting measured after 4 days. The series is classed as toxicity, organism-based. Conditions: in vivo, 96 h.
Series [9] in a line: Hepatotoxicity in rat assessed as effect on portal veins at 50 mg/kg by hematoxylin and eosin staining based assay. The series is classed as toxicity, organism-based. Conditions: in vivo.
Series [10] in a line: Ulcerogenic activity in rat assessed as effect on gastric mucosa at 50 mg/kg by hematoxylin and eosin staining based assay. The series is classed as toxicity, organism-based. The settings on record: in vivo.
For series [11], the system named is Rattus norvegicus. Briefly: Anti-inflammatory activity in albino rat model of carrageenan-induced paw edema assessed as inhibition of carrageenan-induced paw edema at 100 mg/kg, po administered as single dose prior to carrageenan challenge measured after 8 hrs relative to control. The series is classed as functional.
The subject of series [12] is Rattus norvegicus. Briefly: Anti-inflammatory activity in albino rat model of carrageenan-induced paw edema assessed as inhibition of carrageenan-induced paw edema at 100 mg/kg, po administered as single dose prior to carrageenan challenge measured after 12 hrs relative to control. The series is classed as functional.
For series [13], the system named is Rattus norvegicus. In words: Anti-inflammatory activity in albino rat model of carrageenan-induced paw edema assessed as inhibition of carrageenan-induced paw edema at 100 mg/kg, po administered as single dose prior to carrageenan challenge measured after 3 hrs relative to control. The series is classed as functional.
The nature of series [14]: Ulcerogenic activity in rat assessed as effect on gastric submucosa at 50 mg/kg by hematoxylin and eosin staining based assay. The series is classed as toxicity, organism-based. The settings on record: in vivo.
Series [15] deals with T1, Prostaglandin G/H synthase 2 (Homo sapiens, UniProt P35354).
T1 sequence (P35354 whole entry): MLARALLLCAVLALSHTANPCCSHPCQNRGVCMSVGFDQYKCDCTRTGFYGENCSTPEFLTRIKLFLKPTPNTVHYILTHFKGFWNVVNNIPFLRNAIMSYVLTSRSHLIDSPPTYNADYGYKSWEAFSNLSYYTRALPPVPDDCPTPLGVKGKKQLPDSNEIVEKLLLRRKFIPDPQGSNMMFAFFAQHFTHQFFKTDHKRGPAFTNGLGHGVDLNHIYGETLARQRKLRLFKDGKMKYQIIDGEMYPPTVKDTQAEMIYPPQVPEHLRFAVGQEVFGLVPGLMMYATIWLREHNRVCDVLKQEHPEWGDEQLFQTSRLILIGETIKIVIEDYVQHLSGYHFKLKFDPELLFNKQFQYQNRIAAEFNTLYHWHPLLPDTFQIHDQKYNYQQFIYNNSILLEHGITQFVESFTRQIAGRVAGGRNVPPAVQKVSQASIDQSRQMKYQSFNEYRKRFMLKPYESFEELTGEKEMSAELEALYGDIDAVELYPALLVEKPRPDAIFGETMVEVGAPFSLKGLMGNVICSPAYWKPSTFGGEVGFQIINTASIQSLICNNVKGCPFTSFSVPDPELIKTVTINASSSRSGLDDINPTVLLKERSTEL
Briefly: Inhibition of human recombinant COX2 assessed as decrease in prostaglandin production using arachidonic acid as substrate pretreated for 15 mins followed by substrate addition and measured after 2 mins by enzyme immunoassay.

A short description of series [16]: Ulcerogenic activity in rat assessed as average severity of ulcers formed at 50 mg/kg, sc qd for 4 days post 18 hrs fasting measured after 4 days. The series is classed as toxicity, organism-based. Conditions: in vivo, 96 h.
A short description of series [17]: Nephrotoxicity in rat assessed as effect on proximal tubule at 50 mg/kg by hematoxylin and eosin staining based assay. The format is toxicity, organism-based. Conditions: in vivo.
Series [18] can be described thus: Ulcerogenic activity in rat assessed as incidence of gastric ulceration at 50 mg/kg, sc qd for 4 days post 18 hrs fasting measured after 4 days relative to control. The format is toxicity, organism-based. Conditions: in vivo, 96 h.
The test system of series [19] is Rattus norvegicus. Briefly: Anti-inflammatory activity in albino rat model of carrageenan-induced paw edema assessed as inhibition of carrageenan-induced paw edema at 100 mg/kg, po administered as single dose prior to carrageenan challenge measured after 4 hrs relative to control. The format is functional.
Series [20] can be described thus: Hepatotoxicity in rat assessed as effect on central veins in liver at 50 mg/kg by hematoxylin and eosin staining based assay. The format is toxicity, organism-based. The settings on record: in vivo.
Series [21] can be described thus: Ulcerogenic activity in rat assessed as ulcer index at 50 mg/kg, sc qd for 4 days post 18 hrs fasting measured after 4 days. The series is classed as toxicity, organism-based. Conditions: in vivo, 96 h.
A short description of series [22]: Nephrotoxicity in rat assessed as effect on distal tubule at 50 mg/kg by hematoxylin and eosin staining based assay. Conditions: in vivo. The format is toxicity, organism-based.

As usually defined, the IC50 is the point on the concentration scale where inhibition reaches its midpoint. By inhibition in vivo is commonly meant the share of the control response that was lost under treatment.

Prostaglandin G/H synthase 1, sequence (P23219 whole entry): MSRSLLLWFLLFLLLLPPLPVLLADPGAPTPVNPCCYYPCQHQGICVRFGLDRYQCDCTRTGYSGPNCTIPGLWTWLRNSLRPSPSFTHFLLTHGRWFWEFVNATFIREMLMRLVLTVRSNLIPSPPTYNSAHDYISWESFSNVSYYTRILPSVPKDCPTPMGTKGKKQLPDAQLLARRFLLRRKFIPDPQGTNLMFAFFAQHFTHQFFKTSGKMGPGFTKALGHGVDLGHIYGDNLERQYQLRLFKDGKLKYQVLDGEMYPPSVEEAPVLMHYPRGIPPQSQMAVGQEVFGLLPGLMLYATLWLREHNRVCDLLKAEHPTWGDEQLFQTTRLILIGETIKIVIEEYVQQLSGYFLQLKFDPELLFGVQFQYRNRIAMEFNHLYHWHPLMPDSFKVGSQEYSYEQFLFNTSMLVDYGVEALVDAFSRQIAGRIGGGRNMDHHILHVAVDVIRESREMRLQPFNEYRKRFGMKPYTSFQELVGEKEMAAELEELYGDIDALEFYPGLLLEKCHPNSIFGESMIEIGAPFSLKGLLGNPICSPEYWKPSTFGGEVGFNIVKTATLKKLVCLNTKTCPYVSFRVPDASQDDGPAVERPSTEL

With `CC(=O)n1nc(-c2ccccc2)cc1-c1cn(-c2ccccc2)nc1-c1ccc(OCc2ccccc2)cc1`, the IC50 in series [1] worked out at 13000 nM; in series [15], 1930 nM. Further, the Activity entry in series [2] was “Toxic”; in [3], “Toxic”; in [4], “Toxic”; in series [5], “Toxic”; in series [6], “Toxic”; in series [8], 0.8. In addition, the Activity entry in [9] is on record as “Toxic”; in [10], “Toxic”; in series [14], “Toxic”; in series [16] it was 1.2; in [17] it was “Toxic”; in series [18] it was 4%. Besides, the Activity result in series [20] and in [22] was “Toxic” in each case. Also, in the series listed under Homo sapiens, the Ratio IC50 is 6.74. Besides, the inhibition in vivo at 100 mg/kg with Rattus norvegicus [7] turned out to be 78.3%; with Rattus norvegicus [11] it was 55.2%; with Rattus norvegicus [12], 57.7%; with Rattus norvegicus [13], 64.6%; in the series on Rattus norvegicus [19] it was 59.8%. The UI in series [21] is reported as 6.
Take `COc1ccc2c(c1)c(CC(=O)O)c(C)n2C(=O)c1ccc(Cl)cc1` [INDOMETHACIN]: the Activity result in series [2] is on record as “Toxic”; in series [3], “Toxic”; in [4], “Toxic”; in series [5], “Toxic”; in [6], “Toxic”; in series [8] it was 5. In addition, the Activity result in [9] is “Toxic”; in series [10], “Toxic”; in [14], “Toxic”; in series [16], 2.6; in series [17] it was “Toxic”; in series [18], 10%. Also, the Activity result in series [20] and in [22] was “Toxic” in each case. Further, the inhibition in vivo at 100 mg/kg in the series with Rattus norvegicus [7] was found to be 80.2%; in the series on Rattus norvegicus [11], 62.5%; with Rattus norvegicus [12] it was 55.6%; in the series on Rattus norvegicus [13], 79.8%; in the series with Rattus norvegicus [19], 65.2%. The UI in [21] worked out at 17.6.
For `S=c1nc(-c2ccc(Cl)cc2)cc(-c2cn(-c3ccccc3)nc2-c2ccc(OCc3ccccc3)cc2)[nH]1`, the IC50 stood at 7200 nM in [1] and 1100 nM in [15]. Further, the Activity result in [2] is given as “Toxic”; in series [3], “Toxic”; in [4] it was “Toxic”; in series [5], “Toxic”; in [6], “Toxic”; in [8], 1.2. Moreover, the Activity entry in series [9] is recorded as “Toxic”; in [10], “Toxic”; in series [14], “Toxic”; in series [16], 1.2; in series [17], “Toxic”; in series [18], 4%. Moreover, the Activity entry in series [20] and in series [22] was “Toxic” in each case. In addition, the Ratio IC50 in the series filed under Homo sapiens came to 6.54. Moreover, the inhibition in vivo at 100 mg/kg in the series with Rattus norvegicus [7] was found to be 42.2%; in the series with Rattus norvegicus [11] it was 24.7%; in the series on Rattus norvegicus [12], 15.5%; in the series with Rattus norvegicus [13] it was 54.4%; in the series on Rattus norvegicus [19] it was 41.8%. For the same compound, the UI in series [21] was 6.4.
As to `N#CC1=C(N)OC(c2ccccc2)=CC1c1cn(-c2ccccc2)nc1-c1ccc(OCc2ccccc2)cc1` (configuration not stated), the IC50 was determined as 4020 nM in series [1] and 720 nM in series [15]. Also, the Activity result in [2] is recorded as “Toxic”; in series [3], “Toxic”; in series [4] it was “Toxic”; in [5] it was “Toxic”; in series [6], “Toxic”; in series [8] it was 0.8. Also, the Activity result in series [9] was “Toxic”; in series [10], “Toxic”; in series [14], “Toxic”; in [16] it was 0.4; in series [17], “Toxic”; in [18], 4%. For the same compound, the Activity entry in series [20] and in series [22] was “Toxic” each time. For the same compound, in the series listed under Homo sapiens, the Ratio IC50 is 5.58. In addition, the inhibition in vivo at 100 mg/kg in the series on Rattus norvegicus [7] turned out to be 69%; in the series with Rattus norvegicus [11] it was 42.9%; in the series on Rattus norvegicus [12], 28.2%; with Rattus norvegicus [13], 59.5%; in the series with Rattus norvegicus [19], 54.5%. Also, the UI in series [21] was 5.2.
For `O=C(/C=C/c1cn(-c2ccccc2)nc1-c1ccc(OCc2ccccc2)cc1)c1ccc(Cl)cc1`, the figures for the IC50 in series [1] and in series [15] were 5590 nM and 600 nM, respectively. For the same compound, the Activity entry in [2] was “Non-Toxic”; in series [3] it was “Non-Toxic”; in [4] it was “Non-Toxic”; in series [5] it was “Non-Toxic”; in [6], “Non-Toxic”; in series [8], 0.2. The Activity entry in series [9] was “Non-Toxic”; in series [10], “Non-Toxic”; in series [14], “Non-Toxic”; in series [16], 0.2; in [17], “Non-Toxic”; in [18], 2%. Moreover, the Activity entry in [20] and in series [22] was “Non-Toxic” each time. Also, the Ratio IC50 in the series listed under Homo sapiens was 9.32. In addition, the inhibition in vivo at 100 mg/kg in the series on Rattus norvegicus [7] came out at 89.7%; with Rattus norvegicus [11], 48.6%; with Rattus norvegicus [12], 41.4%; in the series with Rattus norvegicus [13], 77.1%; with Rattus norvegicus [19], 69.9%. The UI in series [21] is 2.4.
As for `Cc1ccc(-c2cc(C(F)(F)F)nn2-c2ccc(S(N)(=O)=O)cc2)cc1` [CELECOXIB], the Activity result in series [2] is given as “Toxic”; in series [3], “Toxic”; in [4], “Toxic”; in [5] it was “Toxic”; in [6] it was “Toxic”; in series [8] it was 0.6. The Activity entry is “Toxic” in [9]; “Toxic” in series [10]; “Toxic” in [14]; 0.6 in [16]; “Toxic” in series [17]; 2% in series [18]. For the same compound, the Activity result in series [20] and in series [22] was “Toxic” in each case. The inhibition in vivo at 100 mg/kg came out at 56.1% in the series on Rattus norvegicus [7]; 44.9% in the series with Rattus norvegicus [11]; 34.6% in the series on Rattus norvegicus [12]; 58.5% in the series on Rattus norvegicus [13]; 48.1% in the series on Rattus norvegicus [19]. Moreover, in series [21], the UI is given as 3.2.
